From paper PMC7312539, “Homology Modeling of the Human P-glycoprotein (ABCB1) and Insights into Ligand Binding through Molecular Docking Studies” (International Journal of Molecular Sciences, 2020)

Target: efflux pump P-gp (Homo sapiens, UniProt P08183)
Conditions: Figure 11; for Effect on the rate of excretion of rhodamine 123 (R123) out of Caco-2 cells / interaction with P-gp: Caco-2 cells loaded with 10 μM R123, compared to control DMSO
Method: Results are expressed as percentage compared to the rate of excretion of R123 in the absence of drug (i.e control DMSO). Error bars: SD; verapamil: positive control; diazepam: negative control.
Shortly, Caco-2 cells were washed with HEPES-buffered Ringer’s (RH) solution (NaCl 150 mM, KCl 5.2 mM, CaCl2 2.2 mM, MgCl2 0.2 mM, NaHCO3 6 mM, Glucose 2.8 mM, HEPES 5 mM, water for injection), pH = 7.4 and incubated for 120 min with 10 μM R123. After incubation, cells were washed with RH and incubated with test compounds for one hour during which the rate out (Kout) of R123 (λex = 485 nm and λem = 538 nm) was monitored every 2 minutes with a microplate fluorescence reader (Fluoroskan Ascent FL, Thermo Labsystems, Issy-Les-Moulineaux, France) at 37 °C, after which the cell viability was assessed using MTT cytotoxicity assay kit. Rhodamine Kout was calculated as the slope of the curve of the cumulative R123 fluorescence against the time. Verapamil was used as a positive control and diazepam as negative control.

Sequence of efflux pump P-gp (P08183 whole entry): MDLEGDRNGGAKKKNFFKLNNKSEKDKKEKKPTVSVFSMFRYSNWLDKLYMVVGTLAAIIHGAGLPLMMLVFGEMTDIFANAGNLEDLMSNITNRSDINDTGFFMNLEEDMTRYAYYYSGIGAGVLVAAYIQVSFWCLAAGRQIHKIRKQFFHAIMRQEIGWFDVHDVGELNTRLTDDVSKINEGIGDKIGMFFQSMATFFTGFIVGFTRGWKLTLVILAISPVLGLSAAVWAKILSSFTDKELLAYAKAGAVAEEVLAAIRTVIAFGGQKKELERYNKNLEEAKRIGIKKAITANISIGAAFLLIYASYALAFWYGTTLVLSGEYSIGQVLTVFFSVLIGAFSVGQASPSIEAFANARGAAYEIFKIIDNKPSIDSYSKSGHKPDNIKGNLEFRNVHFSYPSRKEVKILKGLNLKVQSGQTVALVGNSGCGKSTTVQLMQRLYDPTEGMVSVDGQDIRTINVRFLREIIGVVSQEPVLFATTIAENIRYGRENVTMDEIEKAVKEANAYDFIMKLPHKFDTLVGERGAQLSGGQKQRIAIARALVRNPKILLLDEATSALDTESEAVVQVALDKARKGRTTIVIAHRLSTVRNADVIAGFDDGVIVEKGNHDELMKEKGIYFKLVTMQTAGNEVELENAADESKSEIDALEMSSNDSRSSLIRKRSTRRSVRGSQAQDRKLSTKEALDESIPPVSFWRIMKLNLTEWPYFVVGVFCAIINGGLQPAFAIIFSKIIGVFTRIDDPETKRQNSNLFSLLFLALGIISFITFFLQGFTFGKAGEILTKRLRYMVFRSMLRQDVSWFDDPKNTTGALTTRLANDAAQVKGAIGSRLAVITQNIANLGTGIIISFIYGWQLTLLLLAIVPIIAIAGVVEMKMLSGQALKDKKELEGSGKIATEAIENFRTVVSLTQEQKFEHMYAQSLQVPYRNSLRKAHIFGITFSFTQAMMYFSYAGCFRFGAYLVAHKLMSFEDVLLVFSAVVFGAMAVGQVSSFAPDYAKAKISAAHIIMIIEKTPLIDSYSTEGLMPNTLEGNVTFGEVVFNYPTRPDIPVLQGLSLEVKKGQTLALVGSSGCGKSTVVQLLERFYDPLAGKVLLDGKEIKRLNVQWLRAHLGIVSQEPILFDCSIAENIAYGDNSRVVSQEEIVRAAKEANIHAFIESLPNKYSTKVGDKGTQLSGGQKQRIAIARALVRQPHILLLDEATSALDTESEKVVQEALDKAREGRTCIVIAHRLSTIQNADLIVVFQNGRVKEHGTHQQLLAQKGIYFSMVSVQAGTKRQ

Effect on the rate of excretion of rhodamine 123 (R123) out of Caco-2 cells / interaction with P-gp	SMILES	Interference with the P-gp mediated efflux of R123 out of Caco-2 cells (compound at 50 µM, Caco-2 cells)
did not show any interaction	NCCC(O)(P(=O)(O)O)P(=O)(O)O [APD, pamidronate]	
not transported by P-gp	CS(=O)(=O)OCCCCOS(C)(=O)=O [BU, busulfan]	
	C[n+]1ccc(-c2cc[n+](C)cc2)cc1 [PQ, paraquat]	do not interfere
not transported by P-gp	CCCC(CCC)C(=O)O [VPA, valproic acid]	
